# Experiments:
# healthy male rats = assay: Acute oral toxicity assessment (OECD Guidelines No. 423); format: in vivo, rat; conditions: single per os dose 10 mg/kg, sacrifice after 14 days, (absolute organ weight × 100%)/body weight
# Experimental: The acute oral toxicity was assessed in healthy male rats (n = 24, three rats per group, body weight 180–200 g) according to a previously established protocol and the OECD Guidelines No. 423 [37, 38].
# Animals were randomly assigned to the following groups: control group—rats that received single dose of 1% DMSO and experimental groups—rats that received compounds 8–14 per os in the single dose of 10 mg/kg dissolved in 1% DMSO. All rats were fasted prior to administration of compounds and during 3 h following the treatment.
# Afterwards, rats were kept in single cages and observed once daily during 14 days for clinical signs of toxicity. All behavioral changes and any signs of toxicity were recorded (fur and skin, urination (color), feces consistency, eyes, salivation, any alterations in behavior pattern). Additionally, food and water intake and the body weight were measured daily over 14 days. After accomplishing the monitoring period, rats were sacrificed, and organ weight (liver, kidney, stomach, and heart) was recorded. Relative organ weight was calculated as follows: (absolute organ weight × 100%)/body weight of rat on the day of sacrifice(1)
# [1] = system: carrageenan-induced rat paw edema; assay: Carrageenan-induced rat paw edema model; format: in vivo; conditions: for Rat Paw Thickness: mean ± SD; for inhibition in vivo at 2.5 mg/kg / inhibition in vivo at 5 mg/kg / inhibition in vivo at 10 mg/kg: Rattus norvegicus
# Experimental: The Carrageenan-induced rat paw edema model was used to assess the anti-inflammatory potential of novel compounds 8–14. Induction of inflammation was performed in all animals by intraplantar injection of […] 0.5% carrageenan saline into the left hind paw.
# Animals (n = 200) were randomly divided into the following groups: control groups, that received either 1% DMSO or naproxen, and experimental groups, that received the novel compounds 8–14.
# Control groups included DMSO and naproxen groups. Rats belonging to the DMSO group received 1% DMSO in the same volume as the compounds 8–14, 60 min before carrageenan injection. Moreover, naproxen groups included rats that were subjected to naproxen treatment in three doses: 2.5 mg/kg, 5 mg/kg, and 10 mg/kg. Naproxen was applied in the same manner as 1% DMSO.
# Experimental groups included rats that were treated with compounds 8–14 and they were divided into three subgroups depending on the applied dose: 2.5 mg/kg, 5 mg/kg, and 10 mg/kg. The examined compounds were dissolved in 1% DMSO prior to treatment and applied to rats 60 min before inducing inflammation, i.e., before carrageenan injection. Doses of naproxen and investigated compounds were defined based on our previously published research.
# In order to quantify the anti-inflammatory effects of the tested compounds, left paw thickness was measured at specific time points: prior to inflammation induction (moment 0) and 1, 2, 3, and 4 h (moments 1, 2, 3, and 4) following carrageenan injection. Tissue thickness was measured in the middle of the rat paw using a Digital Vernier caliper (Aerospace, China). The percentage of inhibition of paw edema after treatment with different agents was calculated according to the formula, Equation (2):% Inhibition = 100 × [1 − (Yt/Yc)](2) where Yt = average increase in paw thickness in the treated group of rats between two measurement moments, and Yc = average increase in paw thickness in the untreated group of rats between two measurement moments.
# [2] = 2.5 mg/kg, 1 h after carrageenan
# [3] = 2.5 mg/kg, 2 h after carrageenan
# [4] = 2.5 mg/kg, 3 h after carrageenan
# [5] = 2.5 mg/kg, 4 h after carrageenan
# [6] = 5.0 mg/kg, 1 h after carrageenan
# [7] = 5.0 mg/kg, 2 h after carrageenan
# [8] = 5.0 mg/kg, 3 h after carrageenan
# [9] = 5.0 mg/kg, 4 h after carrageenan
# [10] = 10.0 mg/kg, 1 h after carrageenan
# [11] = 10.0 mg/kg, 2 h after carrageenan
# [12] = 10.0 mg/kg, 3 h after carrageenan
# [13] = 10.0 mg/kg, 4 h after carrageenan
SMILES,"Relative organ weight, Heart (healthy male rats)","Relative organ weight, Kidney (healthy male rats)","Relative organ weight, Liver (healthy male rats)","Relative organ weight, Stomach (healthy male rats)","Rat Paw Thickness [1, 2]","Rat Paw Thickness [1, 3]","Rat Paw Thickness [1, 4]","Rat Paw Thickness [1, 5]","Rat Paw Thickness [1, 6]","Rat Paw Thickness [1, 7]","Rat Paw Thickness [1, 8]","Rat Paw Thickness [1, 9]","Rat Paw Thickness [1, 10]","Rat Paw Thickness [1, 11]","Rat Paw Thickness [1, 12]","Rat Paw Thickness [1, 13]","inhibition in vivo at 2.5 mg/kg ([1]; 2.5 mg/kg, 1 h)","inhibition in vivo at 2.5 mg/kg ([1]; 2.5 mg/kg, 2 h)","inhibition in vivo at 2.5 mg/kg ([1]; 2.5 mg/kg, 3 h)","inhibition in vivo at 2.5 mg/kg ([1]; 2.5 mg/kg, 4 h)",also measured
"COc1ccc2cc([C@H](C)C(=O)NC(=S)Nc3ccccc3C)ccc2c1 [Compound 10, (S)-2-(6-methoxynaphthalen-2-yl)-N-(o-tolylcarbamothioyl)propanamide]",0.34 ±0.04,0.31 ± 0.04,2.67 ± 0.15,0.58 ± 0.04,6.17 ± 0.51 mm,6.07 ± 0.83 mm,5.77 ± 0.85 mm,5.17 ± 0.75 mm,6.47 ± 0.51 mm,6.13 ± 0.47 mm,5.77 ± 0.32 mm,5.67 ± 0.40 mm,6.20 ± 0.36 mm,5.93 ± 0.31 mm,5.70 ± 0.44 mm,5.20 ± 0.44 mm,18.4%,13.6%,13.5%,33.3%,"inhibition in vivo at 5 mg/kg ([1]; 5.0 mg/kg, 1 h): 29.3%; inhibition in vivo at 5 mg/kg ([1]; 5.0 mg/kg, 2 h): 36.4%; inhibition in vivo at 5 mg/kg ([1]; 5.0 mg/kg, 3 h): 44.1%; inhibition in vivo at 5 mg/kg ([1]; 5.0 mg/kg, 4 h): 37.8%; inhibition in vivo at 10 mg/kg ([1]; 10.0 mg/kg, 1 h): 19.7%; inhibition in vivo at 10 mg/kg ([1]; 10.0 mg/kg, 2 h): 22.7%; inhibition in vivo at 10 mg/kg ([1]; 10.0 mg/kg, 3 h): 20.7%; inhibition in vivo at 10 mg/kg ([1]; 10.0 mg/kg, 4 h): 35.6%"
"COc1ccc2cc([C@H](C)C(=O)NC(=S)Nc3ccccc3)ccc2c1 [Compound 8, (S)-2-(6-methoxynaphthalen-2-yl)-N-(phenylcarbamothioyl)propanamide]",0.31 ± 0.01,0.32 ± 0.02,2.65 ± 0.15,0.51 ± 0.06,5.67 ± 0.15 mm,5.43 ± 0.15 mm,5.07 ± 0.21 mm,4.53 ± 0.50 mm,6.0 ± 0.36 mm,5.8 ± 0.44 mm,5.40 ± 0.44 mm,4.96 ± 0.35 mm,6.0 ± 0.40 mm,5.60 ± 0.44 mm,5.27 ± 0.38 mm,5.07 ± 0.21 mm,19.7%,21.2%,26.1%,44.4%,"inhibition in vivo at 5 mg/kg ([1]; 5.0 mg/kg, 1 h): 23.8%; inhibition in vivo at 5 mg/kg ([1]; 5.0 mg/kg, 2 h): 24.2%; inhibition in vivo at 5 mg/kg ([1]; 5.0 mg/kg, 3 h): 31.5%; inhibition in vivo at 5 mg/kg ([1]; 5.0 mg/kg, 4 h): 44.9%; inhibition in vivo at 10 mg/kg ([1]; 10.0 mg/kg, 1 h): 29.3%; inhibition in vivo at 10 mg/kg ([1]; 10.0 mg/kg, 2 h): 39.4%; inhibition in vivo at 10 mg/kg ([1]; 10.0 mg/kg, 3 h): 45.9%; inhibition in vivo at 10 mg/kg ([1]; 10.0 mg/kg, 4 h): 46.7%"

# Source: publication PMC10820527, “Synthesis, Characterization, and Investigation of Anti-Inflammatory and Cytotoxic Activities of Novel Thiourea Derivatives of Naproxen” (Pharmaceutics, 2023)
